Data: the supplement of paper PMC10307832

Columns and labels:
Experiment in all cases: relative viability (nuclei count vs DMSO), 5 days (fraction); higher = more cells survive
BI-D1870 + Navitoclax = compound: CC(C)CCN1c2nc(Nc3cc(F)c(O)c(F)c3)ncc2N(C)C(=O)C1C [BI-D1870] + CC1(C)CCC(c2ccc(Cl)cc2)=C(CN2CCN(c3ccc(C(=O)NS(=O)(=O)c4ccc(N[C@H](CCN5CCOCC5)CSc5ccccc5)c(S(=O)(=O)C(F)(F)F)c4)cc3)CC2)C1 [Navitoclax] (partner 0.5 µM)
How it was run: (§1)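 Relative viability equals treated-well nuclei counts divided by vehicle-well nuclei counts. Counts came from 4× images of lung cancer cell lines grown in 1536-well plates for 5 days after pin-tool dosing on the day after seeding. Dosing used one drug alone or a fixed anchor-drug dose plus five library-drug doses (not always all listed) in √10 steps, and values are medians of duplicate plates.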

BI-D1870 + Lapatinib = compound: CC(C)CCN1c2nc(Nc3cc(F)c(O)c(F)c3)ncc2N(C)C(=O)C1C [BI-D1870] + CS(=O)(=O)CCNCc1ccc(-c2ccc3ncnc(Nc4ccc(OCc5cccc(F)c5)c(Cl)c4)c3c2)o1 [Lapatinib] (partner 2 µM)
How it was run: as §1

Zebularine + Luminespib = compound: O=c1ncccn1[C@@H]1O[C@H](CO)[C@@H](O)[C@H]1O [Zebularine] + CCNC(=O)c1noc(-c2cc(C(C)C)c(O)cc2O)c1-c1ccc(CN2CCOCC2)cc1 [Luminespib] (partner 0.01 µM)
How it was run: as §1

Zebularine + Dasatinib = compound: O=c1ncccn1[C@@H]1O[C@H](CO)[C@@H](O)[C@H]1O [Zebularine] + Cc1nc(Nc2ncc(C(=O)Nc3c(C)cccc3Cl)s2)cc(N2CCN(CCO)CC2)n1 [Dasatinib] (partner 0.075 µM)
How it was run: as §1

Cell Line | relative viability (BI-D1870 + Navitoclax; first compound 0.04 µM) | relative viability (BI-D1870 + Navitoclax; first compound 0.1265 µM) | relative viability (BI-D1870 + Navitoclax; first compound 0.4 µM) | relative viability (BI-D1870 + Navitoclax; first compound 1.265 µM) | relative viability (BI-D1870 + Navitoclax; first compound 4 µM) | relative viability (BI-D1870 + Lapatinib; first compound 0.04 µM) | relative viability (BI-D1870 + Lapatinib; first compound 0.1265 µM) | relative viability (BI-D1870 + Lapatinib; first compound 0.4 µM) | relative viability (BI-D1870 + Lapatinib; first compound 1.265 µM) | relative viability (BI-D1870 + Lapatinib; first compound 4 µM) | relative viability (Zebularine + Luminespib; first compound 1 µM) | relative viability (Zebularine + Luminespib; first compound 3.162 µM) | relative viability (Zebularine + Luminespib; first compound 10 µM) | relative viability (Zebularine + Luminespib; first compound 31.62 µM) | relative viability (Zebularine + Luminespib; first compound 100 µM) | relative viability (Zebularine + Dasatinib; first compound 1 µM) | relative viability (Zebularine + Dasatinib; first compound 3.162 µM) | relative viability (Zebularine + Dasatinib; first compound 10 µM) | relative viability (Zebularine + Dasatinib; first compound 31.62 µM) | relative viability (Zebularine + Dasatinib; first compound 100 µM)
NCI-H1734 | 0.875 | 0.757 | 0.842 | 0.849 | 0.81 | 1.27 | 1.07 | 0.975 | 1.01 | 0.72 | 0.197 | 0.171 | 0.185 | 0.217 | 0.178 | 0.546 | 0.486 | 0.333 | 0.297 | 0.281
NCI-H2126 | 0.876 | 0.829 | 0.853 | 0.904 | 0.771 | 0.814 | 0.741 | 0.768 | 0.85 | 0.693 | 1.01 | 0.85 | 0.889 | 0.795 | 0.379 | 0.813 | 0.538 | 0.612 | 0.569 | 0.488
EMC-BAC-2 | 1.24 | 1.06 | 1.09 | 1.21 | 1.18 | 0.823 | 0.887 | 0.815 | 0.951 | 0.899 | 1.27 | 1.1 | 0.842 | 1.38 | 1.35 | 0.349 | 0.367 | 0.268 | 0.318 | 0.311
NCI-H1993 | 0.91 | 0.888 | 0.988 | 1.07 | 0.73 | 0.855 | 0.774 | 0.88 | 0.809 | 0.789 | 0.908 | 0.687 | 0.749 | 0.815 | 0.847 | 0.658 | 0.609 | 0.48 | 0.498 | 0.496
